Square brackets hold non-standard residues; d marks the D form. Ends that are not written are not given here. Peptide text beside a SMILES is read from it. * marks the point of attachment. PEG12 = NCCOCCOCCOCCOCCOCCOCCOCCOCCOCCOCCOCCOCCC(=O)O; X3 = NC(=O)C[C@H](N*)C(c1ccccc1)c1ccccc1; Dip = N[C@H](C(=O)O)C(c1ccccc1)c1ccccc1; Palmitoyl = CCCCCCCCCCCCCCCC(=O)*; β3hF = N[C@H](CC(=O)O)Cc1ccccc1; Dap = NC[C@H](N)C(=O)O
Tested on: C57/B16J mice
Experiment: Serum iron assay in mice after peptide administration
Format: in vivo
Settings: i.p., 20 nmoles in PBS, 4 hours

Compound | serum iron
CCCCCCCCCCCCCCCC(=O)NCCOCCOCCOCCOCCOCCOCCOCCOCCOCCOCCOCCOCCC(=O)N[C@H](Cc1ccccc1)C(=O)N[C@@H](C(=O)N[C@H](CS)C(=O)N[C@@H](C(=O)N1CCC[C@@H]1C(=O)N[C@H](Cc1ccccc1)C(=O)N[C@H](Cc1c[nH]cn1)C(=O)N[C@@H](C(=O)N[C@H](CC(=O)O)C(N)=O)[C@H](C)O)[C@H](C)CC)[C@H](C)CC [Pr27] | serum iron decrease comparable to that caused by i.p. administration of 20 nmoles Hep25

Same assay, conditions: i.p., 20 nmoles in liposomal solution, 4 hours

Compound | serum iron
CCCCCCCCCCCCCCCC(=O)NC[C@H](NC(=O)CCCCCCCCCCCCCCC)C(=O)NCCOCCOCCOCCOCCOCCOCCOCCOCCOCCOCCOCCOCCC(=O)N[C@H](Cc1ccccc1)C(=O)N[C@@H](C(=O)N[C@H](CS)C(=O)N[C@@H](C(=O)N1CCC[C@@H]1C(=O)N[C@H](Cc1ccccc1)C(=O)N[C@H](Cc1c[nH]cn1)C(=O)N[C@@H](C(=O)N[C@H](CC(=O)O)C(N)=O)[C@H](C)O)[C@H](C)CC)[C@H](C)CC [Pr28] (Palmitoyl-[Dap](Palmitoyl)[PEG12][dF][dI][dC][dI][dP][dF][dH][dT][dD]-NH2) | lesser ability to decrease serum iron than Pr27
CCCCCCCCCCCCCCCC(=O)NCCOCCOCCOCCOCCOCCOCCOCCOCCOCCOCCOCCOCCC(=O)N[C@H](Cc1ccccc1)C(=O)N[C@@H](C(=O)N[C@H](CS)C(=O)N[C@@H](C(=O)N1CCC[C@@H]1C(=O)N[C@H](Cc1ccccc1)C(=O)N[C@H](Cc1c[nH]cn1)C(=O)N[C@@H](C(=O)N[C@H](CC(=O)O)C(N)=O)[C@H](C)O)[C@H](C)CC)[C@H](C)CC [Pr27] | serum iron decrease similar to that caused by i.p. administration of 20 nmoles Hep25

Same assay, conditions: i.p., 200 nmoles in PBS, 4 hours

Compound | serum iron
CCCCCCCCCCCCCCCC(=O)NCCOCCOCCOCCOCCOCCOCCOCCOCCOCCOCCOCCOCCC(=O)N[C@H](Cc1ccccc1)C(=O)N[C@@H](C(=O)N[C@H](CS)C(=O)N[C@@H](C(=O)N1CCC[C@@H]1C(=O)N[C@H](Cc1ccccc1)C(=O)N[C@H](Cc1c[nH]cn1)C(=O)N[C@@H](C(=O)N[C@H](CC(=O)O)C(N)=O)[C@H](C)O)[C@H](C)CC)[C@H](C)CC [Pr27] | even greater decrease in serum iron concentrations

Same assay, conditions: i.p., 50 μg per mouse in PBS, 4 hours, vs PBS

Compound | serum iron
CC[C@H](C)[C@H](NC(=O)[C@H](CS)NC(=O)[C@@H](NC(=O)[C@@H]1CCCN1C(=O)[C@H](Cc1ccccc1)NC(=O)[C@H](Cc1c[nH]cn1)NC(=O)[C@@H](NC(=O)[C@@H](N)CC(=O)O)[C@@H](C)O)[C@@H](C)CC)C(=O)N[C@@H](Cc1ccccc1)C(N)=O [Hep9] | did not result in a serum iron decrease

Same assay, conditions: oral by gavage, 200 nmoles in cremophore EL solution, vs PBS in same formulation

Compound | serum iron
CCCCCCCCCCCCCCCC(=O)NCCOCCOCCOCCOCCOCCOCCOCCOCCOCCOCCOCCOCCC(=O)N[C@H](Cc1ccccc1)C(=O)N[C@@H](C(=O)N[C@H](CS)C(=O)N[C@@H](C(=O)N1CCC[C@@H]1C(=O)N[C@H](Cc1ccccc1)C(=O)N[C@H](Cc1c[nH]cn1)C(=O)N[C@@H](C(=O)N[C@H](CC(=O)O)C(N)=O)[C@H](C)O)[C@H](C)CC)[C@H](C)CC [Pr27] | caused a decrease in serum iron in mice

Target: T1, ferroportin fused to green fluorescent protein (ECR293/Fpn-GFP cells) (Mus musculus, UniProt Q9JHI9)
T1 sequence (Q9JHI9 1-570): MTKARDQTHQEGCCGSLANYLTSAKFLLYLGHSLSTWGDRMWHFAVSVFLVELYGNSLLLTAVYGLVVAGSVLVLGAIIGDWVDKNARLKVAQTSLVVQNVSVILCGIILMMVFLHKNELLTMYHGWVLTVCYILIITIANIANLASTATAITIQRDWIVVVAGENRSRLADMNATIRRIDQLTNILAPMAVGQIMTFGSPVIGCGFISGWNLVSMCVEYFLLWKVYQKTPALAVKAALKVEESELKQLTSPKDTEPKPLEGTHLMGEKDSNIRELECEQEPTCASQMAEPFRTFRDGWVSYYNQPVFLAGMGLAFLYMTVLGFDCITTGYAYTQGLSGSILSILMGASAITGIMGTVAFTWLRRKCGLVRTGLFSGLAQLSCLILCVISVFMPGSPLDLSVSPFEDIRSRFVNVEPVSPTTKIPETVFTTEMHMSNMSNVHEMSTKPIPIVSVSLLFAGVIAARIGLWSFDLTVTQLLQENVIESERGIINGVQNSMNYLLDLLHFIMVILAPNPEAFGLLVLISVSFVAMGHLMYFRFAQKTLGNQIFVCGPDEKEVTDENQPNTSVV
Experiment: Flow cytometry of ferroportin-GFP internalization and degradation in ECR293/Fpn-GFP cells
Format: cell-based
Settings: concentration eliciting 50% of maximal loss of fluorescence generated by reference Hep25; 24 hours
Protocol: In vitro activity may be measured by the dose-dependent loss of fluorescence of cells engineered to display ferroportin fused to green fluorescent protein as in Nemeth et al. (2006) Blood 107:328-33. […]
FLOW CYTOMETRY. The activity of peptides of the present invention was measured by flow cytometry as previously described. See Nemeth et al. (2006) Blood 107:328-333, which is herein incorporated by reference. ECR293/Fpn-GFP, a cell line stably transfected with a ponasterone-inducible ferroportin construct tagged at the C-terminus with green fluorescent protein was used. See Nemeth et al. (2004) Science 306:2090-2093, which is herein incorporated by reference. Briefly, the cells were plated on poly-D-lysine coated plates in the presence of 20 μM FAC, with or without 10 μM ponasterone. After 24 hours, ponasterone was washed off, and cells were treated with peptides for 24 hours. Cells were then trypsinized and resuspended at 1×10^6 cells/ml, and the intensity of green fluorescence was analyzed by flow cytometry. […] Cells not induced with ponasterone to express Fpn-GFP were used to establish a gate to exclude background fluorescence. Cells induced with ponasterone, but not treated with any peptides, were used as the positive control. Each peptide was tested over the range of concentrations (0, 0.01, 0.03, 0.1, 0.3, 1, 3 and 10 μM). Each peptide treatment was repeated independently 3 to 6 times.

Compound | EC50
CC[C@H](C)[C@H](NC(=O)[C@H](CS)NC(=O)[C@@H](NC(=O)[C@@H]1CCCN1C(=O)[C@H](Cc1ccccc1)NC(=O)[C@H](Cc1c[nH]cn1)NC(=O)[C@@H](NC(=O)[C@@H](N)CC(=O)O)[C@@H](C)O)[C@@H](C)CC)C(=O)N[C@@H](CC(N)=O)C(c1ccccc1)c1ccccc1 [F9bhDpa] (H-DTHFPICI-X3) | 0.1 µM
CC[C@H](C)[C@H](NC(=O)[C@H](CS)NC(=O)[C@@H](NC(=O)[C@@H]1CCCN1C(=O)[C@H](Cc1ccccc1)NC(=O)[C@H](Cc1c[nH]cn1)NC(=O)[C@@H](NC(=O)[C@@H](N)CC(=O)O)[C@@H](C)O)[C@@H](C)CC)C(=O)N[C@@H](Cc1ccccc1)C(=O)N1CCC[C@H]1CC(=O)N1CCC[C@H]1C(=O)N[C@@H](CCCCN)C(N)=O [Pr15] | 0.15 µM

The remaining lines, values ahead:

EC50 | Compound
0.05 µM | CC[C@H](C)[C@H](NC(=O)[C@H](CS)NC(=O)[C@@H](NC(=O)[C@@H]1CCCN1C(=O)[C@H](Cc1ccccc1)NC(=O)[C@H](Cc1c[nH]cn1)NC(=O)[C@@H](NC(=O)[C@@H](N)CC(=O)O)[C@@H](C)O)[C@@H](C)CC)C(=O)N[C@@H](Cc1ccccc1)C(=O)N1CCC[C@H]1CC(=O)N1CCC[C@H]1C(=O)N[C@@H](CCCNC(=N)N)C(N)=O [Pr16]
0.03 µM | CC[C@H](C)[C@H](NC(=O)[C@H](CS)NC(=O)[C@@H](NC(=O)[C@@H]1CCCN1C(=O)[C@@H](NC(=O)[C@H](Cc1c[nH]cn1)NC(=O)[C@@H](NC(=O)[C@@H](N)CC(=O)O)[C@@H](C)O)C(c1ccccc1)c1ccccc1)[C@@H](C)CC)C(=O)N[C@@H](Cc1ccccc1)C(N)=O [F4Dpa] (H-DTH[Dip]PICIF-NH2; N-terminus assumed)
0.035 µM | CC[C@H](C)[C@H](NC(=O)[C@H](CS)NC(=O)[C@@H](NC(=O)[C@@H]1CCCN1C(=O)[C@@H](NC(=O)[C@H](Cc1c[nH]cn1)NC(=O)[C@@H](NC(=O)[C@@H](N)CC(=O)O)[C@@H](C)O)C(c1ccccc1)c1ccccc1)[C@@H](C)CC)C(=O)N[C@H](C(N)=O)C(c1ccccc1)c1ccccc1 [Pr39] (H-DTH[Dip]PICI[Dip]-NH2)

Same assay, conditions: concentration eliciting 50% of maximal loss of fluorescence generated by reference Hep25; 24 hours; read-out: EC50 (the source's name)

DC50 | Compound
0.2 µM | CC[C@H](C)[C@H](NC(=O)[C@H](CS)NC(=O)[C@@H](NC(=O)[C@@H]1CCCN1C(=O)[C@H](Cc1ccccc1)NC(=O)[C@H](Cc1c[nH]cn1)NC(=O)[C@@H](NC(=O)[C@@H](N)CC(=O)O)[C@@H](C)O)[C@@H](C)CC)C(=O)N[C@H](CC(=O)N1CCC[C@@H]1C(=O)N1CCC[C@H]1C(=O)N[C@@H](CCCNC(=N)N)C(N)=O)Cc1ccccc1 [Pr20] (H-DTHFPICI[β3hF][dP]PR-NH2)
2 µM | DTHFPICI-NH2 [Hep8]

Compound | DC50
HFPICIF-NH2 [Hep7ΔDT] | 0.7 µM
